According to the supplement of paper PMC9938120:

Legend:
Test in all cases: drug sensitivity score (DSS3, normalised partial AUC of % inhibition dose-response) (DSS (score)); higher = more sensitive (stronger inhibition of viability); extreme values may be limits of the assay
FMOC25_1 = patient-derived low-grade serous ovarian cancer cells; conditions: 72 h; library: FO4B; assay format: 2D, 384-well, CellTiter-Glo
How it was run: (§1)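 The drug sensitivity score is calculated as a partial area under the percent-inhibition dose-response curve, divided by the log of the upper asymptote; higher scores mean more sensitive. For this score, early-passage (under 10) patient-derived ovarian cancer cells were exposed on 384-well flat clear-bottom plates to compounds at five concentrations across a 10,000-fold range for 72 h at 37 °C, 5% CO2. Viability was read with CellTiter-Glo and processed in Breeze.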

FMOC17 = patient-derived low-grade serous ovarian cancer cells; conditions: 72 h; library: FO5A; assay format: 2D, 384-well, CellTiter-Glo
How it was run: as §1

FMOC14 = patient-derived high-grade serous ovarian cancer cells; conditions: 72 h; library: FO5A; assay format: 2D, 384-well, CellTiter-Glo
How it was run: as §1

FMOC25_2 = patient-derived low-grade serous ovarian cancer cells; conditions: 72 h; library: FO5A; assay format: 2D, 384-well, CellTiter-Glo
How it was run: as §1

FMOC24 = patient-derived high-grade serous ovarian cancer cells; conditions: 72 h; library: FO5A; assay format: 2D, 384-well, CellTiter-Glo
How it was run: as §1

FMOC06 = patient-derived mucinous ovarian cancer cells; conditions: 72 h; library: FO5A; assay format: 2D, 384-well, CellTiter-Glo
How it was run: as §1

FMOC27 = patient-derived low-grade serous ovarian cancer cells; conditions: 72 h; library: FO5A; assay format: 2D, 384-well, CellTiter-Glo
How it was run: as §1

FMOC11 = patient-derived high-grade serous ovarian cancer cells; conditions: 72 h; library: FO5A; assay format: 2D, 384-well, CellTiter-Glo
How it was run: as §1

FMOC22 = patient-derived mucinous ovarian cancer cells; conditions: 72 h; library: FO5A; assay format: 2D, 384-well, CellTiter-Glo
How it was run: as §1

FMOC09 = patient-derived high-grade serous ovarian cancer cells; conditions: 72 h; library: FO5A; assay format: 2D, 384-well, CellTiter-Glo
How it was run: as §1

FMOC02_1 = patient-derived low-grade serous ovarian cancer cells; conditions: 72 h; library: FO5A; assay format: 2D, 384-well, CellTiter-Glo
How it was run: as §1

FMOC04 = patient-derived high-grade serous ovarian cancer cells; conditions: 72 h; library: FO5A; assay format: 2D, 384-well, CellTiter-Glo
How it was run: as §1

FMOC02_3 = patient-derived low-grade serous ovarian cancer cells; conditions: 72 h; library: FO5A; assay format: 2D, 384-well, CellTiter-Glo
How it was run: as §1

FMOC03 = patient-derived mucinous ovarian cancer cells; conditions: 72 h; library: FO5A; assay format: 2D, 384-well, CellTiter-Glo
How it was run: as §1

FMOC02_2 = patient-derived low-grade serous ovarian cancer cells; conditions: 72 h; library: FO5A; assay format: 2D, 384-well, CellTiter-Glo
How it was run: as §1

FMOC28 = patient-derived low-grade serous ovarian cancer cells; conditions: 72 h; library: FO5A; assay format: 2D, 384-well, CellTiter-Glo
How it was run: as §1

Structure (SMILES)	drug sensitivity score (FMOC25_1)	drug sensitivity score (FMOC17)	drug sensitivity score (FMOC14)	drug sensitivity score (FMOC25_2)	drug sensitivity score (FMOC24)	drug sensitivity score (FMOC06)	drug sensitivity score (FMOC27)	drug sensitivity score (FMOC11)	drug sensitivity score (FMOC22)	drug sensitivity score (FMOC09)	drug sensitivity score (FMOC02_1)	drug sensitivity score (FMOC04)	drug sensitivity score (FMOC02_3)	drug sensitivity score (FMOC03)	drug sensitivity score (FMOC02_2)	drug sensitivity score (FMOC28)
CCNC(=O)CCC/C=C\C[C@@H]1[C@@H](/C=C/[C@@H](O)CCc2ccccc2)[C@H](O)C[C@@H]1O [Bimatoprost]	0	0	0	0	0	0	0	0	0	0	0	0	0	0	0	0
Cn1cnc2c(F)c(Nc3ccc(Br)cc3F)c(C(=O)NOCCO)cc21 [Binimetinib]	6.6	6	0	3.2	0	7.6	2.2	0	3.6	4.2	5.5	0	7.1	4.8	7.1	1.6
Cc1c(N)nc([C@H](CC(N)=O)NC[C@H](N)C(N)=O)nc1C(=O)N[C@H](C(=O)N[C@H](C)[C@@H](O)[C@H](C)C(=O)N[C@H](C(=O)NCCc1nc(-c2nc(C(=O)NCCC[S+](C)C)cs2)cs1)[C@@H](C)O)[C@@H](OC1OC(CO)C(O)C(O)C1OC1OC(CO)C(O)C(OC(N)=O)C1O)c1cnc[nH]1 (some centres not stated) [Bleomycin]	9	3.4	0.1	3.2	5.65	3.1	2.4	3.4	0.8	3.2	3.1	0	8.8	0.7	4.3	2.9
Cc1cc2c(F)c(Oc3ncnn4cc(OC[C@@H](C)O)c(C)c34)ccc2[nH]1 [Brivanib]	0	0	0	0	0	0	0	0	0	0	0	0	0	0	0	0
CCC/C=C/C=C/C(=O)O[C@H]1/C(=C/C(=O)OC)C[C@H]2C[C@H]([C@@H](C)O)OC(=O)C[C@H](O)C[C@@H]3C[C@H](OC(C)=O)C(C)(C)[C@](O)(C[C@@H]4C/C(=C/C(=O)OC)C[C@H](/C=C/C(C)(C)[C@]1(O)O2)O4)O3 [Bryostatin 1]	6.6	0	0	7.1	3.45	6.8	0.2	2.4	2.6	0.6	6.7	0.7	4.1	0	1.5	0.7
O=C(O)CCCCC(CCSCc1ccccc1)SCc1ccccc1 (configuration not stated) [CPI-613]	0	2.5	0	0	0	0	0	0	0	0	0	0	0	0	0	2.8
COc1cc2nccc(Oc3ccc(NC(=O)C4(C(=O)Nc5ccc(F)cc5)CC4)cc3)c2cc1OC [Cabozantinib]	0	0	0	0	4.45	0	0.8	0	0	0	1	0	0	0	0.1	0
CCCCCOC(=O)Nc1nc(=O)n([C@@H]2O[C@H](C)[C@@H](O)[C@H]2O)cc1F [Capecitabine]	0	0.5	0.7	0.7	0.6	0	0	0.1	2.5	0	0	1.95	0	0.4	0	0
COc1cc2c(Oc3ccc4[nH]c(C)cc4c3F)ncnc2cc1OCCCN1CCCC1 [Cediranib]	1.7	0.2	0	0	1.85	0.5	0	0.2	0	0	1.1	0	0	0	0.9	1
Cc1ccc(-c2cc(C(F)(F)F)nn2-c2ccc(S(N)(=O)=O)cc2)cc1 [Celecoxib]	0	0	0	0	0	0	0	0	0	0	0	0	0	0	0	0.3
Cc1cc(Nc2ncc(Cl)c(Nc3ccccc3S(=O)(=O)C(C)C)n2)c(OC(C)C)cc1C1CCNCC1 [Ceritinib]	0.6	2.4	0	4.8	0.35	3.7	2.2	0.5	1.7	3.1	2.6	3.15	4.3	1.5	4.2	0
Nc1nc(Cl)nc2c1ncn2[C@H]1C[C@H](O)[C@@H](CO)O1 [Cladribine]	2.4	0.4	0	7.2	0	0.2	2.3	0.8	3.9	1.8	7	0.2	4	0.5	3.3	0.3
C[C@@H](Oc1cc(-c2cnn(C3CCNCC3)c2)cnc1N)c1c(Cl)ccc(F)c1Cl [Crizotinib]	0	0	0	0.4	0.65	0	0	0	0	0	0.9	0.05	0	0	0.1	0
CC(C)(C)c1nc(-c2cccc(NS(=O)(=O)c3c(F)cccc3F)c2F)c(-c2ccnc(N)n2)s1 [Dabrafenib]	1.8	0.1	0	4	0	0	0	0	0	0	5.9	0	4.7	0	0.8	1.4
CCN(CC)CCN(Cc1ccc(-c2ccc(C(F)(F)F)cc2)cc1)C(=O)Cn1c(SCc2ccc(F)cc2)nc(=O)c2c1CCC2 [Darapladib]	0.1	0	1.3	0	4.2	0	0	0.1	0	0	0	0.25	1.6	0	0	1.2
Nc1ncn([C@H]2C[C@H](O)[C@@H](CO)O2)c(=O)n1 [Decitabine]	0	0.9	0	1.5	7.4	0.4	7.5	5.3	0.1	0	0.3	0	0.6	0	1.4	0
CC(=O)N(O)CCCCCNC(=O)CCC(=O)N(O)CCCCCNC(=O)CCC(=O)N(O)CCCCCN [Deferoxamine]	1.1	0	1.2	0	0	1.4	0	4.5	1.1	1.4	0	0	0.2	4.1	0	0
C[C@@H]1C[C@H]2[C@@H]3CCC4=CC(=O)C=C[C@]4(C)[C@@]3(F)[C@@H](O)C[C@]2(C)[C@@]1(O)C(=O)CO [Dexamethasone]	0	1.3	0	0	0	0	0	0	0	0	0	0	0	0	0	0
Cc1ccc(-n2nc(C(C)(C)C)cc2NC(=O)Nc2ccc(OCCN3CCOCC3)c3ccccc23)cc1 [Doramapimod]	0.8	0.4	0	0.1	1.85	0	0.1	2.4	0.3	0.8	0.1	0	0	0	0	7.1
CN1CCN(c2ccc3nc(-c4c(N)c5c(F)cccc5[nH]c4=O)[nH]c3c2)CC1 [Dovitinib]	0.2	0	0	0.4	1.6	0	0	0.1	0	0	0.6	0	1.1	0	1.4	1
C[C@H](Nc1ncnc2nc[nH]c12)c1cc2cccc(Cl)c2c(=O)n1-c1ccccc1 [Duvelisib]	0	0.5	0	0	0.65	1	0.1	0.7	0	0	0	0	0	0	0.1	0
Cc1cc(C)c(CNC(=O)c2cc(-c3ccc(CN4CCOCC4)cc3)cc3c2cnn3C2CCCC2)c(=O)[nH]1 [EPZ-5687]	0	0.1	0	1.8	1.7	0	3.1	0	0.6	0	0.4	0.05	1.5	0.6	0.9	5.1
